# Reference: patent US20240269309A1, “CAMPTOTHECIN ANALOGUES, CONJUGATES AND METHODS OF USE” (priority 2021, published 2024)
# Experiments:
# Assay type in all cases: cell-based
# Calu-3 (lung cancer) = assay: In vitro cytotoxicity of camptothecin analogues (CellTiter-Glo); settings: Homo sapiens, Calu-3, 96 h; 4 d incubation, growth inhibition by CellTiter-Glo; read-out: pIC50 Calu-3 (converted)
# Experimental: Cytotoxicity of the camptothecin analogues was assessed in vitro on the following cancer cell lines: SK-BR-3 (breast cancer), SKOV-3 (ovarian cancer), Calu-3 (lung cancer), ZR-75-1 (breast cancer) and MDA-MB-468 (breast cancer).
# Briefly, serial dilutions of camptothecin analogues shown in Table 5.1 were prepared in RPMI 1640+10% FBS, and 20 uL of each dilution was added to 384-well plates. Cells cultured in log-phase growth were detached by brief incubation in 0.05% Trypsin and resuspended in respective culturing media at 20,000 cells/mL (with the exception of ZR-75 cells, which were resuspended at 10,000 cells/mL). 50 uL of cell suspension was then added to the plates containing test articles. Cells were incubated with test articles for 4 d at 37° C. (with the exception of ZR-75 cells, which were incubated for 5 d). Growth inhibition was assessed by CellTiter-Glo® (Promega Corporation, Madison, WI) and luminescence was measured on a Synergy™ H1 plate reader (BioTek Instruments, Winooski, VT). IC50 values were determined by GraphPad Prism (GraphPad Software, San Diego, CA).
# [1] = system: EBC-1 (lung carcinoma; FRα-negative) spheroids; assay: In vitro cytotoxicity of anti-FRα ADCs, 3D spheroids; settings: monoculture spheroids, 6-day treatment
# Experimental: (§1) The cytotoxicity capabilities of select ADCs from Example 12 were assessed in a panel of FRα-expressing cell line spheroids as described below. Cell lines used were IGROV-1 (ovarian adenocarcinoma), T-47D (breast carcinoma), OVCAR-3 (ovarian adenocarcinoma), HEC-1-A (uterine adenocarcinoma) and EBC-1 (lung carcinoma; FRα-negative).
# (§2) Briefly, cells were seeded in Ultra-Low Attachment 384-well plates, centrifuged and incubated under standard culturing conditions to allow for spheroid formation and growth. Monoculture cell line spheroids were then treated with a titration of test article, generated in cell growth medium. Spheroids were incubated for 6 days under standard culturing conditions. After incubation, CellTiter-Glo® 3D reagent (Promega Corporation, Madison, WI) was spiked in all wells. Plates were incubated in the dark at room temperature for 1 hour and luminescence was quantified using a BioTek Cytation 5 Cell Imaging Multi-Mode Reader (Agilent Technologies, Inc., Santa Clara, CA). Based on blank wells (no test article added), percent cytotoxicity values were calculated and plotted against test article concentration using GraphPad Prism 9 software (GraphPad Software, San Diego, CA).
# [2] = system: HEC-1-A (uterine adenocarcinoma) spheroids; assay: as above; settings: monoculture spheroids, 6-day treatment
# Experimental: as §1, §2
# [3] = system: IGROV-1 (ovarian adenocarcinoma) spheroids; assay: as above; settings: monoculture spheroids, 6-day treatment
# Experimental: as §1, §2
# [4] = system: OVCAR-3 (ovarian adenocarcinoma) spheroids; assay: as above; settings: monoculture spheroids, 6-day treatment
# Experimental: as §1, §2
# [5] = system: T-47D (breast carcinoma) spheroids; assay: as above; settings: monoculture spheroids, 6-day treatment
# Experimental: as §1, §2
Compound,IC50 (Calu-3 (lung cancer)) [nM],EC50 [1] [nM],EC50 [2] [nM],EC50 [3] [nM],EC50 [4] [nM],EC50 [5] [nM]
"CC[C@@]1(O)C(=O)OCc2c1cc1n(c2=O)Cc2c-1nc1cc(F)c(OC)cc1c2CNC(=O)NCc1ccc(N)cc1 [Compound 135, (S)-1-(4-aminobenzyl)-3-((4-ethyl-8-fluoro-4-hydroxy-9-methoxy-3,14-dioxo-3,4,12,14-tetrahydro-1H-pyrano[3′,4′: 6,7]indolizino[1,2-b]quinolin-11-yl)methyl)urea]",25.1,,,,,
"v21995-MC-GGFG-DXd: ""ADCs comprising the antibody palivizumab (v21995) were used as non-targeted controls""; drug-linker MC-GGFG-DXd",,24.4,27.6,16.7,46,17.8
